# Earlier results as cited in US20070060740A1, “Protein crystal” (priority 2002, published 2007).
# Tested on: LXR
# Details: non-steroidal synthetic LXR ligands, background statement; read-out: binding IC50
row,IC50,Compound
2,~0.01 µM,"O=C(O)Cc1cccc(OCCCN(Cc2cccc(C(F)(F)F)c2Cl)CC(c2ccccc2)c2ccccc2)c1 [GW3965, 3-(3-(2-chloro-3-trifluoromethylbenzyl-2,2-diphenylethylamino)propoxy)phenylacetic acid]"
